Source: US20030065176A1, “Factor xa inhibitors with aryl-amidines and derivatives, and prodrugs thereof” (priority 2000, published 2003)
Counter-ions that a name gives are not always drawn. Like-named read-outs stand apart in the source and are kept apart here.

Experiments:
human thrombin = human thrombin (Homo sapiens, UniProt P00734); test: Thrombin inhibition assay (selectivity against thrombin); type: biochemical; settings: for Selectivity (thrombin/FXa): ratio of Ki values; for Ki: read-out: Inhibition ability against thrombin Ki
Procedure: The FXa inhibiting selectivity of the compound according to the present invention to thrombin is measured as follows. The inhibition effect of the compound of formula 1 to thrombin is measured in Ki value by practicing the same method as the above measuring method of FXa inhibiting activity, and the rate of thrombin/FXa is obtained. At this time, the experimental method of thrombin is the same as that of FXa, except that Chromozyme TH (Tosyl-Gly-Pro-Arg-nitroanilide acetate) is used as the substrate.
Inhibiting ability of a compound according to the present invention against thrombin activity was measured as follows.
In 1.5 mL cuvette, 0.1M tris buffer solution (pH 7.8) comprising 150 mM NaCl, and 0.1% PEG 8000 (molecular weight 8000) was placed by 1160 uL. Chromozyme X was dissolved in dimethylsulfoxide (DMSO) to be 0.1 mM, and diluted with the above buffer solution to be 0.1 mM to prepare the substrate solution. 225 uL of 0.1 mM substrate solution as prepared above was added to cuvette. The compound of the present invention was dissolved in DMSO to be 10 mM, and diluted with the above buffer solution to be 0.1 mM, 0.01 mM and 0.001 mM, respectively, to prepare an inhibitor solution. The inhibitor solution was taken in an amount from 0 to 20 uL, and supplemented with tris buffer solution up to 20 uL of total volume of the solution to add to the cuvette.
15 uL of human thrombin, which was dissolved in the above tris buffer solution to be 0.1 mg/mL, was added to the cuvette having the reaction solution at room temperature to begin enzyme hydrolysis. The amount of para-nitroanilide produced for 2 minutes after adding enzyme was monitored about variation of absorbency at 381 nm to depict continuous spectrum of reaction time to absorbency. The above experiment was repeated for various concentrations of inhibitor to obtain consecutive spectrum.
The initial velocity Vi was calculated from gradient within 30 sec of the reaction time in each spectrum. A graph was depicted for a reciprocal of the initial velocity to inhibitor concentration (1/Vi). A linear equation corresponding to points on the graph was obtained. Thereafter, Ki may be calculated by using enzyme reaction equation from x intercept.

[1] = background art; cited from earlier work
trypsin [2] = molecular target: T1, trypsin (UniProt P00760); test: Trypsin inhibition assay (selectivity against trypsin); type: biochemical; settings: read-out: Inhibition ability against trypsin Ki
T1 construct: other: A1: cyclopropyl scaffold; other: A2: pyrrole scaffold; other: A3: bicyclic scaffold; other: A4: cyanophenylalanine scaffold
T1 sequence (P00760 1-246): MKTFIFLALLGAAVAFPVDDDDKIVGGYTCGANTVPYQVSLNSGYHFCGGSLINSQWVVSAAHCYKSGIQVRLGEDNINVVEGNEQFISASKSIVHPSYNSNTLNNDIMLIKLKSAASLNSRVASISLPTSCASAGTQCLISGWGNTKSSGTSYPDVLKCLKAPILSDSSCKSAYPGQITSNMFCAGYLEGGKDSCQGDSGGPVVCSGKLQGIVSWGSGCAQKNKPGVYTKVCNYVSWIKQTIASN
Procedure: (§1) The FXa inhibition selectivity of the compound according to the present invention to trypsin is measured as follows. The inhibition effect of the compound of formula 1 to trypsin is measured in Ki value by practicing the same method as the above measuring method of FXa inhibiting activity, and the rate of trypsin/FXa is obtained. At this time, the experimental method of thrombin is the same as that of FXa, except that N-benzoyl-Val-Gly-Arg-p-nitroanilide hydrochloride is used as the substrate.
(§2) Inhibition activity of a compound according to the present invention was measured by performing the experiment as explained above concerning FXa.
(§3) 20 uM solution of N-benzoyl-Val-Gly-Arg-p-nitroanilide hydrochloride was used as a substrate. An inhibitor solution with various concentrations in the range of 0 to 120 uM was used. Trypsin was dissolved in 0.1N HCl, and supplemented with the above tris buffer solution to be 45 ug/mL. Thereafter, 40 uL of the trypsin solution was used. The remaining procedure and the used amounts of materials (for example, […] of total volume of the reaction solution) and the like were the same as those of the experiment for thrombin. Also, Km was decided in the same method as used in Ki calculation.

trypsin [3] = test: as above; type: biochemical; settings: ratio of Ki values
Procedure: as §1, §2, §3

FXa = FXa (Homo sapiens, UniProt P00742); settings: background art; cited from earlier work
Sequence of FXa (P00742 235-488 limits assumed): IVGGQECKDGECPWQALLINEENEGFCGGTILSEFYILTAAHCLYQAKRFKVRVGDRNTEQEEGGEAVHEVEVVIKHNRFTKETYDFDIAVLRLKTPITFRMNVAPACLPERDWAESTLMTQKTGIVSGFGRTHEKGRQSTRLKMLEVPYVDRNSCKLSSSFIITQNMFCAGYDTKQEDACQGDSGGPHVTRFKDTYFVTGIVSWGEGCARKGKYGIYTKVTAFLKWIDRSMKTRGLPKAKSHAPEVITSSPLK
Sequence of FXa (P00742 41-179 limits assumed): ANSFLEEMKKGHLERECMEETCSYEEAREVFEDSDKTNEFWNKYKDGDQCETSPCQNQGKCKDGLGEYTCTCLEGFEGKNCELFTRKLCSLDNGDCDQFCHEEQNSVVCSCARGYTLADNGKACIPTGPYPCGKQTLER

[4] = A4: cyanophenylalanine scaffold

N=C(N)c1ccc(NC(=O)Nc2ccccc2-c2cccc(C(=N)N)c2)cc1.O=C(O)C(F)(F)F.O=C(O)C(F)(F)F [Compound No. A3-10]
Selectivity (thrombin/FXa) (human thrombin; A3: bicyclic scaffold): 0.82

N=C(N)c1cccc(NC(=O)Nc2ccccc2-c2cccc(C(=N)N)c2)c1.O=C(O)C(F)(F)F.O=C(O)C(F)(F)F [Compound No. A3-11]
Selectivity (thrombin/FXa) (human thrombin; A3: bicyclic scaffold): 6.4

CC(=N)N1CCC(Oc2ccc(N(Cc3ccc4ccc(C(=N)N)cc4c3)S(=O)(=O)CC(=O)O)cc2)CC1 [YM-60828]
oral absorption [1]: capable of being absorbed orally

Cc1ccc(S(N)(=O)=O)c(-c2ccc(NC(=O)[C@@H]3C[C@H]3c3cccc(C(=N)N)c3)cc2)c1.O=C(O)C(F)(F)F (relative stereo) [Compound No. A1-3, 4-(2-aminosulfonyl-5-methyl-phenyl)-phenyl trans 2-(3-aminoiminomethylphenyl-cyclopropane-1-carboxamidemonotrifluoroacetic acid salt]
Ki (trypsin [2]; A1: cyclopropyl scaffold): 120 nM | Ki (human thrombin; A1: cyclopropyl scaffold): 520 nM

4-(2-cyanophenyl)-phenyl N-carboxymethyl)-3-(3-aminoiminomethylphenyl)alanine amide trifluoroacetic acid salt [Compound No. A4-10]
Selectivity (thrombin/FXa) (human thrombin; [4]): 14 | Ki (human thrombin; [4]): 1700 nM

CCOC(=O)c1cn(Cc2cccc(C(=N)N)c2)cc1-c1cccc(-c2ccccc2)c1.O=C(O)C(F)(F)F [Compound No. A2-51, Ethyl 4-(3-biphenyl)-1-(3-aminoiminomethylbenzyl)-pyrrole-3-carboxylate trifluoroacetic acid salt]
Selectivity (thrombin/FXa) (human thrombin; A2: pyrrole scaffold): 0.08

N#Cc1ccccc1-c1ccc(NC(=O)[C@@H]2C[C@@H]2c2cccc(C(=N)N)c2)cc1.O=C(O)C(F)(F)F (relative stereo) [Compound No. A1-7, 4-(2-cyanophenyl)-phenyl [1,2]-cis, [2,3]-cis-2-(3-aminoiminomethylphenyl)cyclopropane-1-carboxamide mono trifluoroacetic acid salt]
Selectivity (trypsin/FXa) (trypsin [3]; A1: cyclopropyl scaffold): 40 | Ki (trypsin [2]; A1: cyclopropyl scaffold): 200 nM | Selectivity (thrombin/FXa) (human thrombin; A1: cyclopropyl scaffold): 400 | Ki (human thrombin; A1: cyclopropyl scaffold): 2000 nM

CCOC(=O)c1cn(Cc2cccc(C(=N)N)c2)cc1-c1ccc(-c2ccccc2)cc1.O=C(O)C(F)(F)F [Compound No. A2-52, Ethyl 4-(4-biphenyl)-1-(3-aminoiminomethylbenzyl)-pyrrole-3-carboxylate trifluoroacetic acid salt]
Selectivity (thrombin/FXa) (human thrombin; A2: pyrrole scaffold): 2.6

N=C(N)c1ccc(-c2ccccc2NC(=O)Nc2cccc(C(=N)N)c2)cc1.O=C(O)C(F)(F)F.O=C(O)C(F)(F)F [Compound No. A3-8]
Selectivity (thrombin/FXa) (human thrombin; A3: bicyclic scaffold): 1.6

Cc1ccc(S(N)(=O)=O)c(-c2ccc(NC(=O)[C@@H]3C[C@@H]3c3cccc(C(=N)N)c3)cc2)c1.O=C(O)C(F)(F)F (relative stereo) [Compound No. A1-4, 4-(2-aminosulfonyl-5-methyl-phenyl)-phenyl cis-2-(3-aminoiminomethylphenyl)-cyclopropane-1-carboxamide mono trfluoroacetic acid salt]
Selectivity (thrombin/FXa) (human thrombin; A1: cyclopropyl scaffold): 127 | Ki (human thrombin; A1: cyclopropyl scaffold): 380 nM

N=C(N)c1ccc(NC(=O)Nc2ccccc2-c2ccc(C(=N)N)cc2)cc1.O=C(O)C(F)(F)F.O=C(O)C(F)(F)F [Compound No. A3-9]
Selectivity (thrombin/FXa) (human thrombin; A3: bicyclic scaffold): 0.04

CCOC(=O)c1cn(Cc2ccc(-c3ccccc3)cc2)cc1Cc1cccc(C(=N)N)c1.O=C(O)C(F)(F)F [Compound No. A2-19, Ethyl 4-(3-aminoiminomethylbenzyl)-1-(4-biphenylmethyl)-pyrrole-3-carboxylate trifluoroacetic acid salt]
Selectivity (thrombin/FXa) (human thrombin; A2: pyrrole scaffold): 0.4

CCOC(=O)c1cn(Cc2ccc(C(=N)N)cc2)cc1Cc1ccc(C(=N)N)cc1.O=C(O)C(F)(F)F.O=C(O)C(F)(F)F [Compound No. A2-42]
Selectivity (thrombin/FXa) (human thrombin; A2: pyrrole scaffold): 4.7

CC(C)c1nc2c(C(=O)O)cc(NC3CCN(C(=N)N)CC3)cc2n1Cc1ccc2ccc(C(=N)N)cc2c1 [ZK-807369]
oral absorption [1]: capable of being absorbed orally

N=C(N)c1cccc(-c2ccccc2NS(=O)(=O)Cc2ccccc2)c1.O=C(O)C(F)(F)F [Compound No. A3-21]
Selectivity (thrombin/FXa) (human thrombin; A3: bicyclic scaffold): 0.73

N=C(N)c1ccc(O)c(CN2CC[C@H](NS(=O)(=O)c3ccc(-c4cccnc4)s3)C2=O)c1 [RPR-130737]
effect as a Fxa inhibitor (FXa): excellent effect as a Fxa inhibitor | selectivity against thrombin, trypsin and the like enzymes (FXa): excellent selectivity against thrombin, trypsin and the like enzymes

4-(4-Aminoiminomethylbenzyl)-1-(3-aminoiminomethylhydroxy-benzyl)-pyrrole-3-carboxylic acid bis trifluoroacetic acid salt [Compound No. A2-30]
Selectivity (thrombin/FXa) (human thrombin; A2: pyrrole scaffold): 190

Cc1ccc(S(N)(=O)=O)c(-c2ccc(NC(=O)[C@@H]3C[C@H]3c3cccc(C(=N)N)c3)cc2)c1.O=C(O)C(F)(F)F (relative stereo) [Compound No. A1-3]
Selectivity (trypsin/FXa) (trypsin [3]; A1: cyclopropyl scaffold): 0.94 | Selectivity (thrombin/FXa) (human thrombin; A1: cyclopropyl scaffold): 5

CCOC(=O)c1cn(Cc2ccccc2)cc1Cc1ccc(C(=N)N)cc1.O=C(O)C(F)(F)F [Compound No. A2-1, Ethyl 4-(4-aminoiminomethylbenzyl)-benzyl-pyrrole-3-carboxylate trifluoroacetic acid salt]
Selectivity (thrombin/FXa) (human thrombin; A2: pyrrole scaffold): 0.1

CC(=N)N1CC[C@H](Oc2ccc(C(Cc3ccc4ccc(C(=N)N)cc4c3)C(=O)O)cc2)C1 (stereo partly drawn) [DX9065a]
oral absorption [1]: capable of being absorbed orally

N=C(N)c1ccc(Cn2cc(Cc3cccc(C(=N)N)c3)c(C(=O)N3CCOCC3)c2)cc1 [Compound No. A2-40, 4-(3-Aminoiminomethylbenzyl)-1-(4-aminoiminomethylbenzyl)-pyrrole-3-carboxylic acid morphorline amide bis trifluoroacetic acid salt]
Selectivity (thrombin/FXa) (human thrombin; A2: pyrrole scaffold): 14

N=C(N)c1cccc(C2=NOC(Cc3nn[nH]n3)(C(=O)Nc3ccc(-c4ccccc4S(N)(=O)=O)cc3)C2)c1 (stereo not drawn) [SK-549]
effect as a Fxa inhibitor (FXa): excellent effect as a Fxa inhibitor | selectivity against thrombin, trypsin and the like enzymes (FXa): excellent selectivity against thrombin, trypsin and the like enzymes

CN1CCN=C1c1cccc(Oc2nc(Oc3cc(C(=N)N)ccc3O)c(F)c(N(C)CC(=O)O)c2F)c1 [ZK-80719]
oral absorption [1]: capable of being absorbed orally

C[n+]1cccc(-c2ccc(NC(=O)C3=C(c4cccc(C(=N)N)c4)CCC3)cc2)c1.O=C([O-])C(F)(F)F [Compound No. A3-26, 4-(N-methylpyridinium-3-yl)-phenyl 2-(3-aminoiminomethylphenyl)-cyclopenetene-1-carboxamide trifluoroacetic acid salt]
Selectivity (trypsin/FXa) (trypsin [3]; A3: bicyclic scaffold): 10 | Ki (trypsin [2]; A3: bicyclic scaffold): 210 nM | Selectivity (thrombin/FXa) (human thrombin; A3: bicyclic scaffold): 670

Ethyl 4-(3-aminoiminomethylbenzyl)-1-aminoiminomethylbenzyl)-pyrrole-3-carboxylate bis trifluoroacetic acid salt [Compound No. A2-37]
Selectivity (thrombin/FXa) (human thrombin; A2: pyrrole scaffold): 7.0
